{"source": "paper PMC10720383", "about": "“Acetylcholinesterase Inhibition in Rats and Humans Following Acute Fenitrothion Exposure Predicted by Physiologically Based Kinetic Modeling-Facilitated Quantitative In Vitro to In Vivo Extrapolation” (Environmental Science & Technology, 2023)", "origin": "cited, not measured here", "key": {"[1]": {"conditions": "not clear if experimental or in silico, cited from earlier work"}, "[2]": {"conditions": "assumed default for neutral and acidic compounds, no experimental data; cited from earlier work"}, "[3]": {"conditions": "humans; diazinon constant used for FNT; cited from earlier work"}, "[4]": {"conditions": "rats; diazinon constant used for FNT; cited from earlier work"}}, "note": "Like-named read-outs stand apart in the source and are kept apart here.", "data": [{"smiles": "Cc1cc(O)ccc1[N+](=O)[O-]", "note": "[MNP, 3-methyl-4-nitrophenol]", "values": [{"measurement": "LogP, reported data", "setting": "[1]; ref OECD 1994", "value": 2.12}, {"measurement": "pKa, reported data", "setting": "[1]; ref Shahpoury et al. 2018", "value": 7.33}, {"measurement": "blood plasma ratio (BPr)", "setting": "[2]", "value": 0.55}]}, {"smiles": "CCOP(=S)(OCC)Oc1cc(C)nc(C(C)C)n1", "note": "[diazinon]", "values": [{"measurement": "absorption rate constant from intestine to liver (kaI)", "setting": "[3]", "value": 0.59, "unit": "h⁻¹"}, {"measurement": "absorption rate constant from stomach to liver (kaS)", "setting": "[3]", "value": 0.32, "unit": "h⁻¹"}, {"measurement": "transfer rate constant from stomach to intestine (ksI)", "setting": "[3]", "value": 0.48, "unit": "h⁻¹"}, {"measurement": "absorption rate constant from intestine to liver (kaI)", "setting": "[4]", "value": 0.59, "unit": "h⁻¹"}, {"measurement": "absorption rate constant from stomach to liver (kaS)", "setting": "[4]", "value": 0.1, "unit": "h⁻¹"}, {"measurement": "transfer rate constant from stomach to intestine (ksI)", "setting": "[4]", "value": 0.48, "unit": "h⁻¹"}]}]}
